According to patent US20190225651A1, “COMPOUNDS FOR INDUCING TISSUE FORMATION AND USES THEREOF” (HISTIDE AG, priority 2015, published 2019):
Ends that are not written are not given here.

System: osteoblast progenitors
Test: Osteogenic differentiation of osteoblast progenitors on peptide-coated materials (Osteopontin staining, Runx2 Q-PCR)
Format: cell-based
Conditions: 48 hours on coated apatite ceramics or type-I collagen sponge
Protocol: (§1) The cells were first fixed for 20 min with 4% paraformaldehyde/PBS at 4° C. After fixation, the cells were permeabilized in PBS containing 1% Triton X-100 for 15 min. Runx2, Osterix, Stro-1, Vinculin, Phalloidin, Osteopontin, Sox2, Sox9 antibodies were visualized by treating the cells with 1% (v/v) specific monoclonal antibodies for 1 hour at 37° C. Then the samples were incubated with Alexa Fluor® 568 or 647 (F(ab′)2 fragment of IgG(H+L)) during 30 min at room temperature. The cell nuclei were counterstained in 20 ng/mL DAPI for 10 min at room temperature.
Total RNA was extracted by using the RNeasy total RNA kit (Qiagen®) according to the manufacturer's instructions. Purified total RNA was used as a template in order to make cDNA by a reverse transcription reaction (Gibco BrI®) with random primers (Invitrogen®). The cDNA was then used as a template for a real-time PCR amplification in the presence of SYBR green reagents (Bio-Rad®) by using a thermocycler (iCycler, Biorad®). Data were analyzed with the iCycler IQ™® software and compared by the ΔΔCt method. Briefly, the mean Ct value of the target gene was normalized to its averaged Ct values of the housekeeping gene (HPRT) to give a ΔCt value, which was then normalized to a control sample to obtain a ΔΔCt value. The results were obtained from two series of experiments performed in a triplicate.
The effect of these GFR-binding compounds as defined herein (SEQ ID NO: 19 and 20) on the differentiation of osteoblast progenitors was evaluated. These osteoblast progenitors were seeded onto the apatite ceramics or on type-I collagen sponge that were both coated with osteogenic peptides. […] This was seen from Osteopentin immunofluorescence staining after cell fixation as described in the Methods section (FIG. 7).
An increase in the Runx2 gene expression after 24 hours of culture (FIG. 8a) was observed by using Quantitative Real Time Polymerase Chain Reaction as described in the Methods section.

For “SEQ ID NO: 20: osteogenic cyclic GFR-binding compound of the sequence listing; sequence not printed (GTPGPSAISTLYLGGGGGGG; also: cyclic, ring type and places not given here)”, the “differentiation into mature osteoblasts” value was “differentiated into mature osteoblasts”.

Same assay, conditions: versus native type-I collagen sponge or native apatite ceramics

“SEQ ID NO: 20: osteogenic cyclic GFR-binding compound of the sequence listing; sequence not printed (GTPGPSAISTLYLGGGGGGG; also: cyclic, ring type and places not given here)” was tested, and the “production of extracellular matrix proteins such as Osteopontin (OPN)” value was “produced extensive amounts of extracellular matrix proteins such as Osteopontin (OPN)”.

System: Hair Follicle Stem Cells
Test: Loss of quiescence and activation of hair follicle stem cells (Sox2, BMP-6)
Format: cell-based, Mouse
Conditions: not given
Protocol: Isolated Hair Follicle Stem Cells were cultured with and without GFR-binding compounds as defined herein (SEQ ID NO: 29 and 30). An increase in the Sox2 protein expression was observed illustrating the activation of these stem cells (FIG. 13a). In parallel, a decrease in the BMP-6 release in the cell culture medium was observed (FIG. 13b).

With “SEQ ID NO: 29: cyclic GFR-binding compound activating hair follicle stem cells; sequence not printed (DENKNSSLSILFFDENKNGGGGGG; also: cyclic, ring type and places not given here)” the “BMP-6 release in the cell culture medium” value was “decrease”.
For “SEQ ID NO: 30: cyclic GFR-binding compound activating hair follicle stem cells; sequence not printed (DENEKSSLSILFFDENEKGGGGGG; also: cyclic, ring type and places not given here)”, the “BMP-6 release in the cell culture medium” value was “decrease”.

In the case of “SEQ ID NO: 29: cyclic GFR-binding compound activating hair follicle stem cells; sequence not printed (DENKNSSLSILFFDENKNGGGGGG; also: cyclic, ring type and places not given here)”, the Sox2 protein expression is reported as “increase”.
In the case of “SEQ ID NO: 30: cyclic GFR-binding compound activating hair follicle stem cells; sequence not printed (DENEKSSLSILFFDENEKGGGGGG; also: cyclic, ring type and places not given here)”, the Sox2 protein expression is reported as “increase”.

System: hMSCs
Test: Loss of stemness, STRO-1 immunostaining
Format: cell-based, human
Conditions: compound in solution in cell culture media
Protocol: as §1
For this type of quantification the freeware image analysis ImageJ® software was used. The raw image was first converted to an 8-bit file, and then the unsharp mask feature was used (settings 1:0.2) to remove the image background (rolling ball radius 10). After smoothing, the resulting image, which appears similar to the original photomicrograph but with minimal background, was then converted to a binary image by setting a threshold. Threshold values were determined empirically by selecting a setting, which gave the most accurate binary image for a subset of randomly selected photomicrographs. The cell area was determined by manual delineation on raw fluorescent images. Total contact area and mean contact area per cell were calculated by “analyse particules” in ImageJ®. A minimum of […] per condition were analyzed. Stro-1 expression was determined using this procedure.
hMSCs were cultured on conventional cell culture plastic plates with and without the presence in the cell culture media of different GFR-binding compounds as defined hereins (SEQ ID NO: 39 to 45) in solution. […] This was probed by Stro-1 immunostaining after cell fixation as described in the Methods section. The quantification of Stro-1 positive contact numbers and areas was performed as described in the Methods section. A minimum of 30 cells per condition were analyzed. One should note that it is commonly admitted that the expression of STRO-1 in a cell is indicative of a cell that is in a substantially non-differentiated state and the decrease of its expression of at least about 20% is indicative of a cell that has started a processus of differentiation but which may not result in the differentiation of the cell. A decrease of more than 50% would be indicative of the presence of a significant shift towards a differentiated state. A decrease of more than 70% would be indicative of the presence of a very important shift towards a differentiated state. A sustained decrease (e.g. for at least 96 h) of more than 50% or 70% would be indicative of the presence of an even more important shift towards a differentiated state.
Likewise, hMSCs were cultured on conventional cell culture plastic plates with and without the presence in the cell culture media of different GFR-binding compounds as defined herein (SEQ ID NO: 1581 to 1606) in solution. […] This strong decrease was also confirmed after 96 h.

Point of comparison: “1594 (AAAAAAAAADAANNVVGIPEPSSVSQELSATSMLYYDAANNVV; also: cyclic, closure not given here) [compound 1594]”, “STRO-1 Expression (%) after 48 h” value 31%. Against it:
- 1581 (GGGGGGGGGDENEKVVNDEGLESVPEDLSSLSVLFFDENEKVV; also: cyclic, closure not given here) [compound 1581] — higher, 33%
- 1582 (GGGGGGGGGDDSSNVIRVPSTSSVPTGQSAISTLYLDDSSNVI; also: cyclic, closure not given here) [compound 1582] — lower, 29%
- 1583 (GGGGGGGGGDDSSNVIRVPSTSSAPTKMNAISMLYFDENEKVV; also: cyclic, closure not given here) [compound 1583] — higher, 34%
- 1584 (GGGGGGGGGDENEKVVGIPEPSSAPVDLKPLSTLYVDENEKVV; also: cyclic, closure not given here) [compound 1584] — the same, 31%
- 1585 (AAAAAAAAADENEKVVAASKASSVPQEEEPLPMVYYDAANNVV; also: cyclic, closure not given here) [compound 1585] — lower, 27%
- 1586 (GGGGGGGGGDDSSNVIKIPKASSVPTGGSNITVQIMDDSSNVI; also: cyclic, closure not given here) [compound 1586] — the same, 31%
- 1587 (AAAAAAAAADENEKVVAASKASSSRVELRSVKIAKVDDSSNVI; also: cyclic, closure not given here) [compound 1587] — higher, 33%
- 1588 (GGGGGGGGGDENEKVVKIPKASSTQVRLRPVQIRKIDAANNVV; also: cyclic, closure not given here) [compound 1588] — lower, 30%
- 1589 (GGGGGGGGGDDSSNVISTPPTSSSRVQLSAISMLYLDDSSNVI; also: cyclic, closure not given here) [compound 1589] — lower, 22%
- 1590 (GGGGGGGGGDENEKVVRVPSTSSTQVKMSAISMLYLDENEKVV; also: cyclic, closure not given here) [compound 1590] — lower, 23%
- 1591 (AAAAAAAAADAANNVVKIPKASSSRVRLSSLSTLFFDAANNVV; also: cyclic, closure not given here) [compound 1591] — lower, 21%
- 1592 (GGGGGGGGGDDSSNVIAASKASSTPTDLNAISTLYFDDSSNVI; also: cyclic, closure not given here) [compound 1592] — lower, 30%
- 1593 (GGGGGGGGGDENEKVVRVPSTSSTQVDLNAISVLYFDENEKVV; also: cyclic, closure not given here) [compound 1593] — higher, 32%
- 1595 (GGGGGGGGGDDSSNVIGIPEPSSAPTRLEPISMLYLDENEKVV; also: cyclic, closure not given here) [compound 1595] — lower, 27%
- 1596 (GGGGGGGGGDENEKVVKIPKASSVSQQLEPISTLYLDENEKVV; also: cyclic, closure not given here) [compound 1596] — lower, 19%
- 1597 (GGGGGGGGGDENEKVVSTPPTSSVPTEVSPINTLYFDENEKVV; also: cyclic, closure not given here) [compound 1597] — higher, 38%
- 1598 (AAAAAAAAADENEKVVKIPKASSVPTKMKPLSVLYVDDSSNVI; also: cyclic, closure not given here) [compound 1598] — higher, 37%
- 1599 (GGGGGGGGGDDSSNVISTPPTSSVSQKMKPLSILYVDDSSNVI; also: cyclic, closure not given here) [compound 1599] — higher, 35%
- 1600 (GGGGGGGGGFDNDENVVRVPSTSSVPEKMEPLTMLYYFDNDENVV; also: cyclic, closure not given here) [compound 1600] — lower, 29%
- 1601 (GGGGGGGGGFDNDENVVSTPPTSSTPTKMSNITTQIMFDNDENVV; also: cyclic, closure not given here) [compound 1601] — higher, 41%
- 1602 (AAAAAAAAADENEKVVRVPSTSSVPAEESNITVQIMDDSSNVI; also: cyclic, closure not given here) [compound 1602] — higher, 42%
- 1603 (GGGGGGGGGFDNDENVVAASKASSVPQRLRSVKVAKVFDNDENVV; also: cyclic, closure not given here) [compound 1603] — higher, 34%
- 1604 (AAAAAAAAADAANNVVKIPKASSTQVRLRSVKTAKVDAANNVV; also: cyclic, closure not given here) [compound 1604] — higher, 35%
- 1605 (AAAAAAAAADENEKVVAASKASSVPEKMRPVQTRKIDDSSNVI; also: cyclic, closure not given here) [compound 1605] — lower, 30%
- 1606 (GGGGGGGGGFDNDENVVGIPEPSSAPVDMRPVQIRKIFDNDENVV; also: cyclic, closure not given here) [compound 1606] — higher, 43%
